Measured values reported in patent US20130310407A1, “COMBINATIONS COMPRISING MACITENTAN FOR THE TREATMENT OF GLIOBLASTOMA MULTIFORME” (ACTELION PHARMACEUTICALS LTD., priority 2011, published 2013).

Assays:
[1] = test system: phosphorylated AKT and MAPK; test: Immunohistochemistry of tumors using antibodies against phosphorylated AKT and MAPK; format: in vivo, mice; details: tumors of treated animals, Examples 1 and 2 (macitentan) and Example 3 (atrasentan, zibotentan)
Description: Suppression of survival and proliferation pathways sensitizes cells to chemotherapy and could be the reason for the high effectiveness of macitentan in combination with chemotherapy.

[2] = test system: LN229 human glioblastoma cells; test: LN229 human glioblastoma cells stereotactically injected into nude mice brain: treatment with macitentan and paclitaxel (Example 2); format: in vivo; details: nude mice with intracerebral LN229, paclitaxel 8.5 mg/kg intraperitoneal weekly, macitentan 10 mg/kg oral daily
Experimental: (§1) Forty-eight (48) female Swiss Nude mice were obtained from Charles River (France). […] Animal experiments were performed according to the European ethical guidelines of animal experimentation.

[3] = test system: LN229 human glioblastoma cells; test: LN229 human glioblastoma cells stereotactically injected into nude mice brain: treatment with macitentan and temozolomide (Example 1); format: in vivo; details: nude mice with intracerebral LN229; treatment from two weeks after injection; temozolomide 7.5 mg/kg oral daily one week on/two weeks off; macitentan 10 mg/kg oral daily; day 100
Experimental: as §1
The mice were monitored daily and euthanized when they developed neurologic symptoms or became moribund. Days of survival were recorded and brain tissues were harvested and processed for histologic examinations. The experiment was terminated on day 100.

Row | SMILES | reduction of phosphorylated AKT and MAPK in tumors (immunohistochemistry) [1] | survival after 70 days [2] | survival rate after 100 days [3]
1 | CCCCN(CCCC)C(=O)CN1C[C@H](c2ccc3c(c2)OCO3)[C@@H](C(=O)O)[C@@H]1c1ccc(OC)cc1 [Atrasentan, atrasentan] | much less prominent | – | –
2 | CC(=O)O[C@H]1C(=O)[C@@]2(C)[C@H]([C@H](OC(=O)c3ccccc3)[C@]3(O)C[C@H](OC(=O)[C@H](O)[C@@H](NC(=O)c4ccccc4)c4ccccc4)C(C)=C1C3(C)C)[C@]1(OC(C)=O)CO[C@@H]1C[C@@H]2O [PTL, paclitaxel] | – | about 60% | –
3 | Cn1nnc2c(C(N)=O)ncn2c1=O [TMZ, temozolomide] | – | – | about 40%
4 | COc1nc(C)cnc1NS(=O)(=O)c1cccnc1-c1ccc(-c2nnco2)cc1 [Zibotentan, zibotentan] | much less prominent | – | –
5 | CCCNS(=O)(=O)Nc1ncnc(OCCOc2ncc(Br)cn2)c1-c1ccc(Br)cc1 [macitentan] | strong reduction of both proteins | about 60% | about 40%
